According to patent US5117830A, “Method of determining viability of tissue” (priority 1990, dated 1992):
Read-outs that look alike come from different tables or passages of the source.

Legend:
[1] = biological target: T1, A2 receptors (Homo sapiens, UniProt P29274); experiment: Antagonism of NECA-stimulated adenylate cyclase in human platelet membranes; type: biochemical
T1 construct: membranes of human platelets; from tissue; host or cells: human platelets (membranes)

[2] = biological target: T2, A1 adenosine receptors (Cavia porcellus, UniProt P47745); experiment: Antagonism of adenosine agonists in reducing force of contraction of guinea pig atrium (A1); conditions: for competitive antagonism at adenosine receptors in the atria / basal force of contraction in the atria: guinea pig atria
T2 construct: The left atria from male guinea pigs were isolated; from tissue; host or cells: guinea pig left atrium (whole tissue in organ bath)
T2 sequence (P47745 1-326): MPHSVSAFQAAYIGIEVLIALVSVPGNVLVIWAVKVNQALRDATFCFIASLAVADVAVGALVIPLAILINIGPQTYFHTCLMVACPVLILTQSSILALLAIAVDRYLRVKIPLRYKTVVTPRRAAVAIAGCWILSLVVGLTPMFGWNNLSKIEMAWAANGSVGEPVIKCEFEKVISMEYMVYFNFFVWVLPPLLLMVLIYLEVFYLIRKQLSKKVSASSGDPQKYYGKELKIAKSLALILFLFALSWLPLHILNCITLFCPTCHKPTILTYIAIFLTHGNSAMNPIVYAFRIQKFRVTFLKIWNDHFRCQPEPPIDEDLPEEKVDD
Experimental: The left atria from male guinea pigs were isolated, suspended between two punctate electrodes, and placed in a 20 ml organ bath that contained Krebs-Hensileit solution that was continuously gassed with 95% O2 +5% CO2 and maintained at 31° C. The resting tension was one gram. The atria were stimulated electrically at 1 Hz, 1 msec duration pulses at supramaximal voltage. The force of contraction was recorded isometrically.
(§1) The ability of the compounds to antagonize the effects of agonists was analyzed using modified Schild plots.

[3] = biological target: T3, A1 receptors (Rattus norvegicus, UniProt P25099); experiment: Inhibition of N^6 -R-[^3 H]-phenylisopropyladenosine binding in rat brain membranes; set-up: rat brain membranes; from tissue; host or cells: rat brain (membranes); conditions: for Ki: (D) Rat Brain Membranes, read-out: Ki vs [^3 H] PIA (Binding), A1 Effects
T3 sequence (P25099 1-326): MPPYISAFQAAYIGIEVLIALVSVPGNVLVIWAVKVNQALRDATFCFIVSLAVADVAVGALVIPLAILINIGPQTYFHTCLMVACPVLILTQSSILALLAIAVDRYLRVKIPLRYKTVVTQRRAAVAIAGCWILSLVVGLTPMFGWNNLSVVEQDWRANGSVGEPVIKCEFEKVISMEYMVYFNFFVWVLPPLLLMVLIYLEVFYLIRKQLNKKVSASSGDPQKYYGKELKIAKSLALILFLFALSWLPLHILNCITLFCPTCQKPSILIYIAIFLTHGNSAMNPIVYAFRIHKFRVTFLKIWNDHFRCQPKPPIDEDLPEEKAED
Experimental: (§2) For activity at A1 receptors, compounds were tested as inhibitors of the binding of N^6 -R-[^3 H]-Phenylisopropyladenosine in rat brain membranes and for their ability to prevent R-PIA-induced inhibition of adenylate cyclase in rat fat cell membranes.

[4] = test system: A2 adenosine receptors; experiment: Antagonism of adenosine agonists in decreasing contractile tone of guinea pig taenia caecum (A2); conditions: for antagonism of the effects of adenosine agonists in relaxing the taenia caecum: guinea pig taenia caecum; for selectivity for A1 adenosine receptors: lack of competitive antagonism in taenia caecum
Experimental: Taenia from the guinea pig caecum were cut into lengths of 1.5-2 cm. The tissues were suspended in a 20 ml organ bath containing de Jalon's solution that was gassed with 95% O2 +5% CO2 and maintained at 31° C. The resting tension was 1.5 g. The contractile response was measured isotonically.
as §1

[5] = test system: coronary artery; conditions: cited from earlier work
[6] = test system: patients; conditions: in vivo; cited from earlier work
[7] = cited from earlier work
[8] = biological target: T4, A2 receptors (Rattus norvegicus, UniProt P30543); experiment: Antagonism of NECA-stimulated adenylate cyclase in rat PC12 membranes; type: biochemical; conditions: read-out: KB vs NECA Stimulation (Adenylate Cyclase), A2 Effects; (B) Rat PC12 Membranes
T4 construct: NECA-stimulated adenylate cyclase
Experimental: For activity at A1 receptors, compounds were tested as inhibitors of the binding of N^6 -R-[^3 H]-Phenylisopropyladenosine in rat brain membranes and for their ability to prevent R-PIA-induced inhibition of adenylate cyclase in rat fat cell membranes. For activity at A2 receptors, compounds were tested as antagonists of NECA-stimulated adenylate cyclase in membranes of human platelets and rat PC12 cells.

[9] = biological target: T3, A1 receptors; experiment: Prevention of R-PIA-induced inhibition of adenylate cyclase in rat fat cell membranes; type: biochemical
Experimental: as §2

[10] = test system: adenosine receptors; conditions: cited from earlier work
[11] = test system: A2 receptors; conditions: vs N^6 -substituted analogs; cited from earlier work
[12] = test system: rat heart rate and blood pressure; experiment: In vivo rat heart rate and blood pressure
Experimental: Rats were anesthetized with urethan and blood pressure was monitored via a carotid cannula. Drug injections were made intravenously through a jugular cannula. Blood pressure, EGC, and heart rate were recorded on a Grass polygraph.

[13] = test system: rat cortical A1 receptors; experiment: Displacement of [^3 H]-CHA from rat cortical A1 receptors; type: binding; conditions: Table 4
Experimental: Varying concentrations of test compounds were incubated with the appropriate radioligand and membrane source for 1 hr at room temperature.
Assays were terminated by filtration over Whatman GF/B filters that had been pre-soaked with 0.1% polyethyleneimine using a 24 port Brandell cell hawester. The filters were washed three times with 3 ml of ice cold buffer and transferred to plastic scintillation vials to which 4 ml of Beckman Ready-Protein scintillation cocktail was added. The tubes were shaken and counted in a Beckman 3801 scintillation counter that converted cpm to dpm.
Data were analyzed by utilizing the Ligand commercial computer program (Munson and Rodbard, 1980).
Male Sprague Dawley rats were killed by decapitation and the brains removed. The cerebral cortices were homogenized in 50 mm Tris; 2mm MgCl2 (pH 7.4), and centrifuged at 40,000×g for 10 minutes. […] The homogenate was centrifuged, washed once, resuspended to a protein concentration of 5-10 mg/ml and frozen at -70° C. until use.

[14] = anesthetized rats, high doses of adenosine
[15] = prior administration, NECA as agonist

T1 sequence (P29274 whole entry): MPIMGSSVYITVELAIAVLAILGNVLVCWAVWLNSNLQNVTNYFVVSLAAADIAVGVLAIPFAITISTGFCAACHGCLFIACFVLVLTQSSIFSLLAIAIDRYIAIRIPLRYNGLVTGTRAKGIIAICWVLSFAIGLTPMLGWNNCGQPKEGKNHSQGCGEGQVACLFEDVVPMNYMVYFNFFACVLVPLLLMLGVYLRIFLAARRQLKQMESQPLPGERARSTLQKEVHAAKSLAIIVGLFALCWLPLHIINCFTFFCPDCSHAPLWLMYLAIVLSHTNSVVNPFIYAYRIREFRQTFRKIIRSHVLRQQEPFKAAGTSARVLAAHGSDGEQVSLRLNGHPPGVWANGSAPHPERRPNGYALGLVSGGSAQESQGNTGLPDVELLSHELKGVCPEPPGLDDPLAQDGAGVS
T4 sequence (P30543 whole entry): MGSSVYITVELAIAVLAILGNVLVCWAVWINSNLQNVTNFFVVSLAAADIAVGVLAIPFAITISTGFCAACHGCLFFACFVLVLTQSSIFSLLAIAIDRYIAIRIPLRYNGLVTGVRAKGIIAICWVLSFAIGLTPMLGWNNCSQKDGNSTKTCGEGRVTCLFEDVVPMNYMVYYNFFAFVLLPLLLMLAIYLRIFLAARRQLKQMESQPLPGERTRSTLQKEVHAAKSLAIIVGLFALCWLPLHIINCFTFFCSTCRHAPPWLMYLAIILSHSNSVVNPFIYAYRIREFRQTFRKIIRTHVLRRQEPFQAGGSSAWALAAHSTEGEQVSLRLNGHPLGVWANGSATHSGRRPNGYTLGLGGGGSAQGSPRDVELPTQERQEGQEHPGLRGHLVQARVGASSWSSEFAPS

Molecule: Cn1cnc2c(NC3CCCC3)ncnc21 [compound 0840, N^6-cyclopentyl-9-MA]
- potency relative to 9-methyladenine at A2 receptors ([1]; human platelet assay): fivefold more potent
- competitive antagonism at adenosine receptors in the atria [2]: competitive antagonists
- Ki [3]: 0.54 µM
- potency relative to 9-methyladenine at A1 receptors ([3]; A1 receptors): at least 100 fold
- antagonism of the effects of adenosine agonists in relaxing the taenia caecum [4]: did not competitively antagonize
- selectivity for A1 adenosine receptors [4]: selective for A1 adenosine receptors

Molecule: OCCN(CCO)c1nc(N2CCCCC2)c2nc(N(CCO)CCO)nc(N3CCCCC3)c2n1 [Dipyridamole, dipyridamole]
- vasodilation / coronary blood flow [5]: increase in coronary blood flow
- side effects [6]: rare but potentially serious side effects which include myocardial ischemia, cardiac arrhythmia, and sudden death
- half-life compared with adenosine ([7]; dipyridamole): significantly longer half-life

Molecule: Cn1cnc2c(NC3CCCCC3)ncnc21 [N^6 -Cyclohexyl-9-MA]
- Ki [3]: 0.94 µM

Molecule: N^6 -Methylcylopentyl-9-MA
- Kb [8]: 56 µM
- Kb ([1]; read-out: KB vs NECA Stimulation (Adenylate Cyclase), A2 Effects, (A) Human Platelet Membranes): 45 µM
- Kb ([9]; (C) Rat Fat Cell Membranes, read-out: KB vs PIA INHIBITION (Adenylate Cyclase), A1 Effects): 9 µM
- Ki [3]: 2.5 µM

Molecule: Cn1c(=O)c2c(ncn2C)n(C)c1=O [caffeine]
- antagonism at adenosine receptors [10]: best known antagonists at adenosine receptors

Molecule: CCNC(=O)[C@H]1O[C@@H](n2cnc3c(N)ncnc32)[C@H](O)[C@@H]1O [NECA, 5'-N-ethylcarboxamido-adenosine]
- potency at A2 receptors [11]: more potent than N^6 -substituted analogs

Molecule: CCC(Cc1cccs1)Nc1ncnc2c1ncn2C (stereo not drawn) [N^6-1-(2-thienyl)-2-butyl-9-MA]
- basal force of contraction in the atria [2]: increases in basal force of contraction
- competitive antagonism at adenosine receptors in the atria [2]: competitive antagonists

Molecule: CCC(CC)Nc1ncnc2c1ncn2C [N^6-3-Pentyl-9-MA]
- basal force of contraction in the atria [2]: increases in basal force of contraction
- competitive antagonism at adenosine receptors in the atria [2]: competitive antagonists
- antagonism of the effects of adenosine agonists in relaxing the taenia caecum [4]: did not competitively antagonize
- selectivity for A1 adenosine receptors [4]: selective for A1 adenosine receptors

Molecule: Nc1ncnc2c1ncn2[C@@H]1O[C@H](CO)[C@@H](O)[C@H]1O [Adenosine, reference compound]
- heart rate, ventilation and airway resistance [5]: increases heart rate, and stimulates ventilation but does not alter airway resistance
- vasodilation / coronary blood flow [5]: potent vasodilator, except in the kidney
- side effects [6]: a number of cardiovascular, respiratory, central nervous system, and gastrointestinal side effects
- heart block [12, 14]: At high doses, adenosine causes heart block
- P-R interval of the ECG ([12]; anesthetized rats, intravenous): concomitant increase in the P-R interval
- blood pressure ([12]; anesthetized rats, intravenous): dose dependent decrease in blood pressure
- heart rate ([12]; anesthetized rats, intravenous): dose dependent decrease in blood pressure and heart rate
- half-life ([7]; in vivo): less than two

Molecule: Cn1c(=O)c2[nH]c(-c3ccccc3)nc2n(C)c1=O [8-phenyltheophylline (8-PT), 8-phenyltheophylline, reference compound]
- receptor selectivity [10]: non-selective adenosine receptor antagonist
- antagonism of the effects of adenosine agonists in relaxing the taenia caecum [4]: did antagonize the effects of agonists at low concentrations
- sensitization of the tissue ([4]; high concentrations, larger response to agonist): Sensitization is also observed when using high concentrations

Molecule: C[C@@H](Cc1ccccc1)Nc1ncnc2c1ncn2C [compound 0986, N^6 -S-1-phenyl-2-propyl-9-MA]
- Kb [9]: 23 µM

Molecule: Cn1cnc2c(N[C@H]3C[C@H]4CC[C@@H]3C4)ncnc21 (relative stereo) [compound 0861, N^6-(endo-2-norbornyl)-9-MA]
- selectivity towards the A1 adenosine receptor / rank of potency ([2]; Table 2 compounds): the most potent antagonist
- competitive antagonism at adenosine receptors in the atria [2]: competitive antagonists
- selectivity for A1 receptors over A2 receptors [13]: 170 fold
- A1 /A2 ([13]; ratio of Ki values): 5.89 × 10^-3
- effects of subsequently administered adenosine on all parameters (blood pressure, heart rate, P-R interval) ([12]; anesthetized rats, antagonist given before adenosine): attenuated the effects of subsequently administered adenosine on all parameters measured
- adenosine-induced heart block [12, 14]: substantially reduced
- NECA-induced decrease in blood pressure [12, 15]: minimally affecting the NECA-induced decrease in blood pressure
- effects of NECA on the heart [12, 15]: attenuated the effects of NECA on the heart
- selectivity in vivo ([12]; rat): cardioselective adenosine receptor antagonist in vivo
- antagonism of the effects of adenosine agonists in relaxing the taenia caecum [4]: did not competitively antagonize
- selectivity for A1 adenosine receptors [4]: selective for A1 adenosine receptors
